Assays:
C. graminicola = assay: Invasion of leaf sheaths of transgenic maize by C. graminicola; assay type: in vivo, Colletotrichum graminicola; settings: greenhouse, T0 V5-stage maize
Procedure: The leaf sheaths of leaf 4 or 5 of T0 plants at the V5 stage were inoculated with 50 μL of 5×10^6 spores/mL after wounding the leaf sheath on both sides of the midrib about half way between edge and midrib with a small screwdriver. The leaf sheath was covered with plastic wrap for 5 days. Nine days after inoculation the area of lesions was measured.

[1] = tested on: Fusarium verticillioides (FVE); assay type: cell-based
[2] = tested on: Fusarium graminearum (FGR; isolate 73B ISU); assay type: cell-based; settings: for IC50 (ppm) High Salt Fgr: high salt: 1/2x liquid media plus 1 mM calcium chloride, 50 mM potassium chloride; for IC50 (ppm) Low Salt Fgr: low salt: 1/8x potato dextrose broth plus 0.25 mM calcium chloride, 12.5 mM potassium chloride
Diplodia maydis (DMA) = assay type: cell-based; settings: for IC50 (ppm) High Salt Dma: high salt: 1/2x liquid media plus 1 mM calcium chloride, 50 mM potassium chloride
[3] = tested on: Colletotrichum graminicola (CGR; isolate Carroll-IA-99); assay type: cell-based; settings: for IC50 (ppm) High Salt Cgr: high salt: 1/2x liquid media plus 1 mM calcium chloride, 50 mM potassium chloride, Table 1; for IC50 (ppm) Low Salt Cgr: low salt: 1/8x Czapek-Dox broth plus 0.25 mM calcium chloride, 12.5 mM potassium chloride

Substance	relation of protein level to disease development (C. graminicola; leaf sheath invasion by CGR)	invasion of leaf sheaths by CGR compared to empty vector controls (C. graminicola; protein accumulated in endoplasmic reticulum, two transformation constructs)	IC50 (ppm) High Salt Fve [1] [ppm]	IC50 (ppm) High Salt Fgr [2]	IC50 (ppm) Low Salt Fgr [2] [ppm]	IC50 (ppm) High Salt Dma (Diplodia maydis (DMA)) [ppm]	Antifungal activity (IC50 in ppm) against C. graminicola under high salt conditions ([3]; high salt conditions, Table 2) [ppm]	IC50 (ppm) High Salt Cgr [3] [ppm]	IC50 (ppm) Low Salt Cgr [3] [ppm]	IC50 (ppm) Low Salt Fve [1] [ppm]	IC50 (ppm) Low Salt Dma (Diplodia maydis (DMA); low salt: 1/8x potato dextrose broth plus 0.25 mM calcium chloride, 12.5 mM potassium chloride) [ppm]
Pp-PDF1-1C-7A4: Pp-PDF1 variant from first shuffling round (RVCEKPSKFFKGLCGSDRDCTNACRKEGLATGECQSKGFFNSVCVCKKPC; Synthetic sequence obtained from DNA shuffling of a plant sequence.)	correlated inversely with disease development	significantly improved events	>200	20 ppm	4.7	50	5	5	0.1		
Pp-PDF1-3CA-1A7: Pp-PDF1 variant from third shuffling round (RVCTKPSKFFRGLCVSDRDCTNACRKEGLPIGFCQSKGFFNSVCVCKKPC; Synthetic sequence obtained from DNA shuffling of a plant sequence.)			200	^~100 ppm	15	25		0.6	0.8	30	10
